Measured values published in patent US20070123518A1, “Product designed to protentiate the therapeutic effects and to enhance the action of medicinal preparations” (priority 2003, published 2007).

Legend:
Assay type in all cases: in vivo
[1] = test system: rats in conflict situation; assay: Conflict situation model of Vogel, ethanol in drinking bowl; conditions: solution in the drinking bowl, mixture 10:1 volumetric ratio
Protocol: Anxiolytic effect was evaluated in accordance with the number of punished water intakes.

[2] = test system: patients suffering from definite rheumatoid arthritis (oligoarthritis); assay: Clinical trial in rheumatoid arthritis (oligoarthritis), duration of effect of hydrocortisone injections; conditions: 20 patients, hydrocortisone 20-25 mg peri- or intra-articular; activated form per os over 8 weeks
Protocol: Twenty patients suffering from definite rheumatoid arthritis (oligoarthritis) necessitating peri- or intra-articular injections of hydrocortisone were included in the clinical trial of influences of activated form (ultra-low doses) of anti-inflammatory agent—hydrocortisone on the therapeutic activity of hydrocortisone in relation with arthritis manifestations. At baseline all patients required injections of 20-25 mg hydrocortisone 2-3 times a week (up on request). Over 8 weeks patients received activated form of hydrocortisone in ultra-low doses per orally—1 tablet for dissolution in the mouth (activated form—mixture of homeopathic dilutions C12+C30+C200, equivalent concentration 10^−24M mass concentration) together with injections. Impacts of activated form were evaluated in accordance with duration of periods, when patients were independent from hydrocortisone injections.

[3] = test system: rats in conflict situation; assay: Conflict situation model of Vogel, phenazepam
Protocol: Anxiolytic activity of phenazepam was studied by conflict situation model of Vogel J., 1971 in rats. Phenazepam was applied in 1) therapeutic dose, 2) activated form or 3) combination of therapeutic dose of phenazepam and activated form of the same medication. Therapeutic doses of Phenazepam (1 mg/kg) were injected intraperitoneally; activated form containing the mixture of homeopathic dilutions C12+C30+C200, was given at 2.5 ml/kg of animal's body weight intraperitoneally; combined treatment included simultaneous injections of both forms in two different syringes. The effect was evaluated after 20 minutes following to medication injections by the quantity of punished water intakes.

[4] = test system: Rat model of adjuvant arthritis; assay: Rat model of adjuvant arthritis (complete Freund's adjuvant), prednisone; conditions: rats, into the stomach; prednisone 2 mg/kg; activated form D24+D60 2.5mg/kg; combined 10:1
Protocol: Rat model of adjuvant arthritis induced by single subplantar injection of 100 μl of complete Freund's adjuvant was applied for evaluation of anti-inflammatory activity of glucocorticosteroid agent—prednisone in following treatment choices: a) therapeutic dose, b) activated (potentiated) form (ultra-low dose), c) combined treatment with therapeutic dose and activated form. Soon after the injection of complete Freund's adjuvant animals (10 rats per group) received prednisone in therapeutic dose, in activated form or their combination (control—distilled water)—for 14 days.
2 mg/kg prednisone (water solution) was given into the stomach; activated form of prednisone in ultra-low doses—mixture of homeopathic dilutions D24+D60 was injected in the form of water solution at the dose of 2.5mg/kg of animal's body weight into stomach; both forms mixed at 10:1 ratio were injected at one time during combined treatment.
Severity of inflammatory damage to each extremity (0 to 4) and overall index of arthritis severity (0 to 16) were assessed once per 1-2 days. Functional disturbances, erythema, edema and deformation of extremities were taken into account. Anti-inflammatory efficacy of the medications was evaluated in accordance with reduction of overall index of arthritis severity by the 2-3rd and 14th days of treatment.

[5] = test system: patients suffering from generalized anxiety syndrome; assay: Hamilton's scale of anxiety in patients with generalized anxiety syndrome, diazepam
From the text: Benzodiazepines represent reference medications for the treatment of anxious states. However, application of benzodiazepines is frequently associated with adverse effects that require dose reduction to minimal effective doses. Investigation of impacts induced by ultra-low doses of activated form of diazepam on the anxiolytic activity of therapeutic doses of diazepam was accomplished in 20 patients suffering from generalized anxiety syndrome characterized with the anxiety level consistent with at least 20 grades of Hamilton's scale of anxiety. Patients received tablets containing activated form of diazepam in ultra-low doses (homeopathic dilution C200, equivalent concentration—10^−400M mass concentration)—1 tablet 4 times a day for 14 days. Thereafter, beginning from 15th to 30th day of therapy patients were took per oral diazepam at the dose of 2 mg qid day (daily dose—8 mg) followed by administration of ultra-low doses of activated form of the very medication 4 tablets per day for 7 days and by combined treatment implicating simultaneous intake of activated form (4 tablets a day) and diazepam (8 mg per day) for 14 days. Anxiety level was evaluated by means of Hamilton's scale at baseline and after each stage of therapy.

CCO [Ethanol 10%, ethanol]
Number of punished water intakes [1]: 317.2 ± 41.0

C[C@]12CCC(=O)C=C1CC[C@@H]1[C@@H]2[C@@H](O)C[C@@]2(C)[C@H]1CC[C@]2(O)C(=O)CO [Hydrocortisone, hydrocortisone]
Duration effects of injections (time lag between injections "upon request") [2]: 2.8 ± 0.3 days

O=C1CN=C(c2ccccc2Cl)c2cc(Br)ccc2N1 [Phenazepam, phenazepam]
Number of punished water intakes ([3]; rats, intraperitoneally, 20 minutes after injection, phenazepam 1 mg/kg, activated form 2.5 ml/kg): 415.67 ± 113.96
anxiolytic activity (in words) ([3]; versus control): possesses anxiolytic activity

C[C@]12C=CC(=O)C=C1CC[C@@H]1[C@@H]2C(=O)C[C@@]2(C)[C@H]1CC[C@]2(O)C(=O)CO [Prednisone, prednisone]
Arthritis severity index by 14th day of therapy [4]: 5.4 ± 1.7 grades
Arthritis severity index by the 2-3rd day of therapy [4]: 2.1 ± 0.4 grades

CN1C(=O)CN=C(c2ccccc2)c2cc(Cl)ccc21 [diazepam]
Overall level of anxiety in accordance with Hamilton's scale ([5]; 20 patients, after the stage of therapy: activated form 2 weeks, then diazepam 8 mg/day, last stage combined 14 days): 16.2 ± 2.5 grades
improvement versus baseline ([5]; Hamilton's scale, after the stage of therapy): 26%
anxiolytic effect (in words) ([5]; dynamic changes in anxiety level): does not yield achievement of pronounced decline of anxiety
